# Assay results published in the supplement of paper PMC10307832.
# Tests used:
# Test in all cases: relative viability (nuclei count vs DMSO), 5 days (fraction); higher = more cells survive
# VE-821 + Bortezomib = compound: CS(=O)(=O)c1ccc(-c2cnc(N)c(C(=O)Nc3ccccc3)n2)cc1 [VE-821] + CC(C)C[C@H](NC(=O)[C@H](Cc1ccccc1)NC(=O)c1cnccn1)B(O)O [Bortezomib] (partner 0.002 µM)
# Outline: (§1)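 For relative viability, nuclei counts in treated wells were divided by those in vehicle wells. Lung cancer cell lines had been pin-tool dosed in 1536-well plates the day after seeding and cultured for 5 days, then fixed and stained in one step (final 0.05% Triton X-100, 1% formaldehyde, 1 ug/ml Hoechst) and imaged at 4×. Doses were one drug alone or a fixed anchor-drug dose plus five library-drug doses (not always all listed) in √10 steps, and values are duplicate-plate medians.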
# Ruxolitinib + Pemetrexed = compound: N#CC[C@H](C1CCCC1)n1cc(-c2ncnc3[nH]ccc23)cn1 [Ruxolitinib] + Nc1nc2[nH]cc(CCc3ccc(C(=O)N[C@@H](CCC(=O)O)C(=O)O)cc3)c2c(=O)[nH]1 [Pemetrexed] (partner 0.2 µM)
# Outline: as §1
# Vismodegib + Palbociclib = compound: CS(=O)(=O)c1ccc(C(=O)Nc2ccc(Cl)c(-c3ccccn3)c2)c(Cl)c1 [Vismodegib] + CC(=O)c1c(C)c2cnc(Nc3ccc(N4CCNCC4)cn3)nc2n(C2CCCC2)c1=O [Palbociclib] (partner 0.5 µM)
# Outline: as §1
# VE-821 + Linsitinib = compound: CS(=O)(=O)c1ccc(-c2cnc(N)c(C(=O)Nc3ccccc3)n2)cc1 [VE-821] + C[C@]1(O)C[C@@H](c2nc(-c3ccc4ccc(-c5ccccc5)nc4c3)c3c(N)nccn32)C1 [Linsitinib] (partner 1 µM)
# Outline: as §1
Cell Line,relative viability (VE-821 + Bortezomib; first compound 0.08 µM),relative viability (VE-821 + Bortezomib; first compound 0.253 µM),relative viability (VE-821 + Bortezomib; first compound 0.8 µM),relative viability (VE-821 + Bortezomib; first compound 2.53 µM),relative viability (VE-821 + Bortezomib; first compound 8 µM),relative viability (Ruxolitinib + Pemetrexed; first compound 0.08 µM),relative viability (Ruxolitinib + Pemetrexed; first compound 0.253 µM),relative viability (Ruxolitinib + Pemetrexed; first compound 0.8 µM),relative viability (Ruxolitinib + Pemetrexed; first compound 2.53 µM),relative viability (Ruxolitinib + Pemetrexed; first compound 8 µM),relative viability (Vismodegib + Palbociclib; first compound 0.08 µM),relative viability (Vismodegib + Palbociclib; first compound 0.253 µM),relative viability (Vismodegib + Palbociclib; first compound 0.8 µM),relative viability (Vismodegib + Palbociclib; first compound 2.53 µM),relative viability (Vismodegib + Palbociclib; first compound 8 µM),relative viability (VE-821 + Linsitinib; first compound 0.08 µM),relative viability (VE-821 + Linsitinib; first compound 0.253 µM),relative viability (VE-821 + Linsitinib; first compound 0.8 µM),relative viability (VE-821 + Linsitinib; first compound 2.53 µM),relative viability (VE-821 + Linsitinib; first compound 8 µM)
NCI-H1666,0.942,0.864,0.755,0.736,0.549,1.01,0.814,0.988,0.786,0.887,0.634,0.678,0.637,0.624,0.691,0.765,0.884,0.777,0.857,0.553
EPLC-272H,0.955,0.927,1.12,1.13,0.814,0.357,0.372,0.377,0.313,0.218,0.307,0.305,0.355,0.342,0.311,1.28,0.928,1.22,1.6,1.11
NCI-H838,0.912,0.855,0.485,1.22,0.652,0.259,0.246,0.266,0.227,0.204,0.214,0.225,0.227,0.261,0.273,1.13,0.992,0.913,1.11,0.913
NCI-H2087,0.996,1.07,1.16,0.77,0.937,0.685,,0.726,0.703,0.652,0.188,0.235,0.22,0.217,0.232,1.18,0.873,1.23,1.05,0.864
LC-2-ad,1.19,1.06,0.569,1.17,1.07,0.287,0.306,0.306,0.26,0.272,0.477,0.501,0.482,0.479,0.544,0.88,0.764,0.821,0.925,0.661
NCI-H2405,1.1,1,0.974,1.02,0.947,1.07,1.11,1.13,0.895,0.592,0.527,0.493,0.498,0.515,0.571,0.881,0.943,0.724,1.09,0.693
HCC-366,1.06,1.03,1.04,0.625,0.062,0.162,0.193,0.155,0.192,0.147,0.342,0.373,0.463,0.456,0.449,0.907,0.49,0.329,0.477,0.0616
NCI-H3122,1,1.02,1.01,1.02,1,0.212,0.198,0.192,0.19,0.188,0.173,0.191,0.167,0.18,0.19,1.06,0.955,0.989,1.05,0.967
LU99A,1.11,1.23,1.16,1.08,0.514,0.171,0.179,0.178,0.186,0.195,0.387,0.4,0.393,0.409,0.433,0.496,0.535,0.545,0.53,0.278
NCI-H1650,0.194,0.195,0.339,0.187,0.213,0.311,0.43,0.351,0.333,0.346,0.365,0.363,0.305,0.304,0.366,,,,,
EMC-BAC-2,1.12,1.08,1.15,1.11,1.04,0.454,0.419,0.431,0.439,0.368,0.508,0.498,0.516,0.508,0.546,0.881,0.817,0.849,0.852,0.841
HCC-78,0.697,0.561,0.471,0.549,0.303,0.919,0.952,0.857,0.892,0.955,0.535,0.505,0.483,0.44,0.488,0.626,0.575,0.404,0.477,0.328
NCI-H1734,1.3,0.873,0.878,0.879,0.611,0.399,0.366,0.437,0.369,0.456,0.372,0.348,0.364,0.255,0.358,0.97,0.917,0.737,0.969,0.617
COR-L23,1.1,0.997,1.06,1,1.06,0.203,0.191,0.201,0.195,0.191,0.337,0.33,0.344,0.289,0.312,0.958,0.897,1.16,0.964,0.719
RERF-LC-KJ,1.15,1.13,0.957,1.03,0.82,0.471,0.485,0.505,0.465,0.456,1.03,1,1.08,1.02,1.14,0.902,0.871,0.819,0.875,0.753
NCI-H1437,0.504,0.523,0.46,0.592,0.4,0.469,0.292,0.304,0.319,0.254,0.305,0.303,0.309,0.311,0.325,1.2,1.08,0.927,0.997,0.558
NCI-H1915,0.967,0.958,1.03,0.999,0.962,0.512,0.501,0.515,0.518,0.439,0.499,0.483,0.549,0.53,0.53,1.09,1.16,1.13,1.18,0.972
SK-MES-1,,,,,,1.03,0.865,1.01,0.849,0.823,0.289,0.306,0.349,0.351,0.364,1.04,1.05,1.02,1.02,0.983
NCI-H522,,,,,,1.04,0.973,1.05,0.964,0.857,1.16,0.985,0.894,0.923,1.03,,,,,
NCI-H1299,0.992,1,0.973,0.924,0.972,,,,,,,,,,,0.946,0.886,0.928,1.06,0.959
NCI-H1651,0.978,0.964,1.07,1.04,0.921,0.578,0.597,0.593,0.599,0.643,0.463,0.511,0.502,0.51,0.54,1.01,0.999,0.847,0.986,0.737

Cell Line,relative viability (VE-821 + Bortezomib; first compound 0.08 µM),relative viability (VE-821 + Bortezomib; first compound 0.253 µM),relative viability (VE-821 + Bortezomib; first compound 0.8 µM),relative viability (VE-821 + Bortezomib; first compound 2.53 µM),relative viability (VE-821 + Bortezomib; first compound 8 µM),relative viability (Ruxolitinib + Pemetrexed; first compound 0.08 µM),relative viability (Ruxolitinib + Pemetrexed; first compound 0.253 µM),relative viability (Ruxolitinib + Pemetrexed; first compound 0.8 µM),relative viability (Ruxolitinib + Pemetrexed; first compound 2.53 µM),relative viability (Ruxolitinib + Pemetrexed; first compound 8 µM),relative viability (Vismodegib + Palbociclib; first compound 0.08 µM),relative viability (Vismodegib + Palbociclib; first compound 0.253 µM),relative viability (Vismodegib + Palbociclib; first compound 0.8 µM),relative viability (Vismodegib + Palbociclib; first compound 2.53 µM),relative viability (Vismodegib + Palbociclib; first compound 8 µM),relative viability (VE-821 + Linsitinib; first compound 0.08 µM),relative viability (VE-821 + Linsitinib; first compound 0.253 µM),relative viability (VE-821 + Linsitinib; first compound 0.8 µM),relative viability (VE-821 + Linsitinib; first compound 2.53 µM),relative viability (VE-821 + Linsitinib; first compound 8 µM)
NCI-H661,0.885,0.953,0.767,0.895,0.72,0.925,0.959,0.939,1,0.809,0.446,0.432,0.439,0.39,0.405,0.539,0.568,0.481,0.493,0.4
NCI-H1944,,,,,,0.671,0.68,0.651,0.65,0.694,0.292,0.324,0.326,,0.379,1.26,1.16,0.832,1.3,0.663
NCI-H358,,,,,,0.174,0.152,0.177,0.163,0.126,0.141,0.181,0.138,0.135,0.16,0.812,0.777,0.723,1.09,0.469
NCI-H596,1.21,1.02,1.08,1.09,1.09,0.507,0.481,0.607,0.462,0.717,,,,,,1.1,1.18,1.03,1.15,0.94
EBC-1,0.534,0.546,0.555,0.517,0.4,,,,,,,,,,,0.908,0.901,0.85,1.16,0.808
ChaGo-K-1,1,1.01,1.24,0.989,0.812,0.255,0.263,0.26,0.256,0.246,0.913,0.968,0.893,0.927,0.915,,,,,
NCI-H2342,,,,,,0.594,0.767,0.812,0.752,0.733,0.517,0.699,0.472,0.574,0.483,,,,,
Calu-6,0.945,0.907,0.891,0.937,0.429,,,,,,,,,,,1,0.839,0.83,1.13,0.942
NCI-H1703,0.335,0.346,0.339,0.289,0.22,,,,,,,,,,,1.42,0.51,0.649,0.93,0.629
NCI-H1563,0.908,0.888,0.784,0.774,0.763,0.724,0.744,0.892,0.774,0.544,,,,,,1.26,1.17,0.914,1.08,1.05
IA-LM,0.762,0.795,0.781,0.803,0.764,,,,,,,,,,,0.836,0.54,0.741,0.903,0.636
SW 900,,,,,,0.467,0.493,0.485,0.466,0.532,0.641,0.514,0.634,,0.603,,,,,
NCI-H727,0.872,0.817,0.741,0.761,0.493,,,,,,0.687,0.649,0.631,0.723,0.639,0.31,0.337,0.251,0.335,0.22
ABC-1,0.333,0.335,0.288,0.368,0.307,,,,,,0.667,1.01,0.542,0.618,0.73,0.819,0.699,0.567,0.798,0.423
NCI-H1648,,,,,,0.674,0.838,0.739,0.923,1.02,0.282,0.246,0.214,0.274,0.241,,,,,
NCI-H1793,,,,,,0.835,0.938,1.15,1.06,0.664,,0.295,0.345,0.321,0.422,1.01,0.846,0.459,1.01,0.698
NCI-H1395,,,,,,0.662,0.685,0.856,0.97,0.729,0.609,0.599,0.606,0.711,0.673,1.07,1.01,0.893,1.05,0.683
NCI-H2170,,,,,,0.256,0.262,0.259,0.266,0.276,0.432,0.387,0.469,0.379,0.418,,,,,
A549,,,,,,,,,,,,,,,,0.623,0.597,0.43,0.599,0.406
LK-2,,,,,,0.291,0.276,0.308,0.234,0.29,0.72,0.708,0.607,0.83,0.745,0.583,0.595,0.662,0.705,0.501
